# From article PMC5513743 (Journal of medical virology, 2017)
# Like-named read-outs stand apart in the source and are kept apart here.
# Legend:
# [1] = tested on: HCV replicon cell line AVA5 (sub-genomic (CON1), genotype 1b); experiment: microbe, parasite or virus in culture; conditions: Hepatitis C virus, GETYPE1B, Ava5, read-out: EC50 (μM) (individual agent)
# [2] = tested on: patient derived HCV; experiment: microbe, parasite or virus in culture; assay type: cell-based, hepatitis C virus; conditions: for IC50: Hepatitis C virus, in Homo sapiens
# [3] = tested on: HCV replicon H/FL-Neo (genotype 1a (H77), full length construct); conditions: HCV genotype 1A replicon
# [4] = tested on: HCV replicon cell line AVA5 (sub-genomic (CON1), genotype 1b)
# [5] = tested on: replicon cell line AVA5; conditions: Table 2; SB 9200 monotherapy
# [6] = tested on: fused THP-1/Huh7 derivative cells; conditions: capture fusion assay, data not shown
# [7] = tested on: HCV; conditions: SAD and MAD seven-day Phase I study, chronic HCV patients; ref Thompson AJ, 2015; cited from earlier work
# [8] = in vitro
# [9] = in vitro; conditions: human
structure (smiles),measurement,setting,value
NC(=O)c1ncn([C@@H]2O[C@H](CO)[C@@H](O)[C@H]2O)n1 [Ribavirin],EC50,[1],> 30 µM
CO[C@@H]1[C@H](OP(=O)(OC[C@H]2O[C@@H](n3cnc4c(N)ncnc43)C[C@@H]2O)SCOC(=O)OC(C)C)[C@@H](CO)O[C@H]1n1ccc(=O)[nH]c1=O (stereo partly shown) [SB 9200],inhibition of HCV replication,"[2]; Genotypes 1,2,3,4, and 6 patient derived HCV",inhibited replication of all the genotypes tested in a dose-dependent manner
same,IC50,"[2]; G1 strains, patient derived HCV",220 ± 76 nM
same,IC50,"[2]; G3 isolates, patient derived HCV",35 ± 13 nM
same,difference in activity (IC50) against pre- and post treatment quasi-species,"[2]; g3 patient who failed SOF/DAC/RBV, NS5A RAS S62L and Y93H enriched",No significant difference
same,antiviral activity (fold change in HCV RNA from non-treated controls),"[2]; single dose 0.1μM, G3 SVR and NR samples after DAA treatment",demonstrated antiviral activity
same,S.I. (CC50/EC50),[3],> 45
same,S.I. (CC50/EC50),[4]; HCV genotype 1B replicon,>100
same,S.I. (CC50/EC50),"[4]; Table 2, SB 9200 monotherapy",>100
same,CC50,[5],> 100000 nM
same,Cell viability,[6],not affected
same,safety and tolerability,[7],"safe, well tolerated"
same,CC50,[8],> 100000 nM
same,CC50,[9],> 100000 nM
"C/C=C/C[C@@H](C)[C@@H](O)[C@H]1C(=O)N[C@@H](CC)C(=O)N(C)[C@H](C)C(=O)N(CC)[C@@H](C(C)C)C(=O)N[C@@H](C(C)C)C(=O)N(C)[C@@H](CC(C)C)C(=O)N[C@@H](C)C(=O)N[C@H](C)C(=O)N(C)[C@@H](CC(C)C)C(=O)N(C)[C@@H](CC(C)C)C(=O)N(C)[C@@H](C(C)C)C(=O)N1C [alisporivir, reference compound]",IC50,[2]; G1 patient derived samples,99 nM
same,IC50,[2]; G3 patient derived samples,36 nM
